Here are results for one compound from PMC12250302, “Synthesis, Antimicrobial Activities, and Model of Action of Novel Tetralone Derivatives Containing Aminoguanidinium Moiety” (International Journal of Molecular Sciences, 2025).

In one data set the test system is S. aureus ATCC 29213. Description: MIC and MBC testing, broth microdilution. The format is cell-based, Staphylococcus aureus. The note with it: Staphylococcus aureus, ATCC29213, S. aureus ATCC 29213. The essentials:
(§1)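 Two-fold serial dilutions of compounds (DMSO stocks) in MH broth, inoculated with log-phase bacteria at 1 × 10^6 CFU/mL and incubated 18 h at 37 °C. MIC is the lowest concentration with no visible growth; triplicates. Levofloxacin positive, 0.1% DMSO negative control.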
(Dilution methods test growth across graded concentrations, often in twofold steps.)

Data set [1] concerns K. pneumoniae ATCC 700603. Nature of the data set: MIC and MBC testing, broth microdilution. The note with it: Klebsiella pneumoniae. The data set is classed as cell-based, Klebsiella pneumoniae. The method, boiled down:
as §1

In another data set the test system is A. baumannii ATCC 19606. Description: MIC and MBC testing, broth microdilution. The format is cell-based, Acinetobacter baumannii. The note with it: Acinetobacter baumannii. The essentials: as §1
The subject of data set [2] is MRSA-2. Description: MIC and MBC testing, broth microdilution. The data set is classed as cell-based, Staphylococcus aureus. The note with it: Staphylococcus aureus, MRSA-2. The method, boiled down: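 Log-phase cultures, adjusted to 1 × 10^6 CFU/mL in MH broth, are exposed to twofold serial compound dilutions and held at 37 °C for 18 h. Triplicate per concentration; both inhibitory and bactericidal endpoints are taken.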

The test system of data set [3] is clinical S. aureus isolate LMY45. Description: MIC and MBC testing, broth microdilution. The format is cell-based, Staphylococcus aureus. The note with it: Staphylococcus aureus, LMY45. The method, boiled down:
(§2)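 Strains grown to logarithmic phase were diluted to 1 × 10^6 CFU/mL, combined with compound two-fold dilution series in MH broth, and incubated at 37 °C for 18 h. MIC and MBC were then recorded, with triplicate wells per concentration.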

Data set [4] relates to clinical S. aureus isolate LMY46. Description: MIC and MBC testing, broth microdilution. The format is cell-based, Staphylococcus aureus. The note with it: Staphylococcus aureus, LMY46. The method, boiled down:
as §2

In data set [5] the test system is clinical S. aureus isolate LMY47. Description: MIC and MBC testing, broth microdilution. The data set is classed as cell-based, Staphylococcus aureus. The note with it: Staphylococcus aureus, LMY47. The method, boiled down:
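Broth microdilution in MH broth: 2-fold compound dilutions from DMSO stocks, log-phase clinical S. aureus isolates or MRSA-1 at 1 × 10^6 CFU/mL, 18 h at 37 °C, each concentration in triplicate. MIC recorded; MBC also determined.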

Data set [6] has as its system clinical S. aureus isolate LMY48. Nature of the data set: MIC and MBC testing, broth microdilution. The note with it: Staphylococcus aureus, LMY48. The format is cell-based, Staphylococcus aureus. The method, boiled down:
as §2

In another data set the test system is sheep red blood cells. Description: Hemolytic activity. The format is cell-based. Here is the method: The hemolysis of compound 2D was determined by its ability to lyse sheep red blood cells. The results were expressed as the HC50 value (the concentration at which 50% of red blood cells were lysed).
The sterile defibrillated sheep blood cells were centrifuged (5000 rpm, 5 min) and then washed three times with 0.9% saline. Subsequently, 1 μL of different concentrations of 2D (0.5–128 μg/mL) was mixed with 999 μL of red blood cell suspension. After incubation at 37 °C for 1 h, the mixed solution was centrifuged. The absorbance of the supernatant at 570 nm was measured. Triton X-100 (0.1%) was used as a positive control, and DMSO was used as a negative control. The hemolysis rate was calculated according to the following formula:Hemolysis rate (%) = (ODTreatment − ODNegative)/(ODPositive − ODNegative) × 100%(1)

Data set [7] has as its system MRSA-2. Nature of the data set: MRSA-induced mouse skin abscess model. The format is in vivo. The text has this: The MRSA-induced mouse skin abscess model was used to assess the in vivo antibacterial effects of 2D. Female KM mice, aged 4–6 weeks and weighing 20 ± 2 g, were purchased from the Laboratory Animal Center, Lanzhou Institute of Veterinary Medicine, Chinese Academy of Agricultural Sciences. The animal experiments were approved by the Ethics Committee of Research Involving Animals of the Lanzhou Institute of Husbandry and Pharmaceutical Science of CAAS (Approval number: 2025-03) and performed in accordance with the guidelines of the Ethics Committee for Animal Experiments. Prior to the formal experiment, all mice were acclimated for 5 days. The mice were kept in a pathogen-free environment with a 12 h light/12 h dark cycle, 50% ± 10% humidity, and a temperature of 24 °C ± 2 °C. […] The depilation method employed was as follows: depilatory paste was applied to the designated area for 10 min, after which it was thoroughly washed with 0.9% saline. The mice were semi-anesthetized by intraperitoneal injection with sodium Ulatan (TCI, 20%, 100 μL). […] After a 24 h interval, the administration was repeated, and 24 h after the last administration, the volume of abscess was measured and calculated. Then, the skin of the infected site and main organs were collected for tissue bacterial load and pathological detection.

Converted amounts (≈) assume the structure as drawn. “Also recorded” adds a separate entry of the source.

A word on the MIC: it is the least concentration at which growth counts as inhibited. In general, MBC refers to the smallest concentration meeting the test's criterion for killing. Usually HC50 stands for the concentration that lyses half of the red blood cells. A higher HC50 goes with less damage to red cells.

`[H]/N=C(\N)NN=C1CCCc2cc(OCCCCCCC)ccc21` [Compound 2D, (E)-2-(6-(heptyloxy)-3,4-dihydronaphthalen-1(2H)-ylidene)hydrazine-1-carboximidamide]: the MIC in the data set on S. aureus ATCC 29213 (18 h, read-out: MIC) came to 0.5 µg/mL (≈ 1.58 µM); in data set [1] (ATCC700603, 18 h, read-out: MIC), 16 µg/mL (≈ 50.6 µM); in the data set on A. baumannii ATCC 19606 (ATCC19606, 18 h, read-out: MIC) it was 4 µg/mL (≈ 12.6 µM); with MRSA-2 [2] (18 h, read-out: MIC), 1 µg/mL (≈ 3.16 µM); in data set [3] (18 h, read-out: MIC), 2 µg/mL (≈ 6.32 µM); in [4] (18 h, read-out: MIC), 4 µg/mL (≈ 12.6 µM). The minimum inhibitory concentration (MIC) in [5] (18 h, read-out: MIC) was determined as 1 µg/mL (≈ 3.16 µM); in data set [6] (18 h, read-out: MIC) it was 2 µg/mL (≈ 6.32 µM). For the same compound, the MBC amounted to 4 µg/mL (≈ 12.6 µM) in the data set on S. aureus ATCC 29213 (read-out: MBC); 32 µg/mL (≈ 101 µM) in data set [1] (ATCC700603, read-out: MBC); 16 µg/mL (≈ 50.6 µM) in the data set with A. baumannii ATCC 19606 (ATCC19606, read-out: MBC); 4 µg/mL (≈ 12.6 µM) with MRSA-2 [2] (read-out: MBC); 2 µg/mL (≈ 6.32 µM) in [3] (read-out: MBC); 32 µg/mL (≈ 101 µM) in data set [4] (read-out: MBC). The figures for the MBC in [5] (read-out: MBC) and in data set [6] (read-out: MBC) were 4 µg/mL (≈ 12.6 µM) and 2 µg/mL (≈ 6.32 µM), respectively. Further, the “Selectivity index (SI)” value in the data set on sheep red blood cells (SI = HC50/MIC ATCC 29213) is given as 101.30. The same compound displayed an HC50 in the data set with sheep red blood cells (sheep red blood cells, 37 °C, 1 h) of 50.65 µg/mL. The “purulent lesions at the infection site (skin histopathology)” value in the data set on MRSA-2 [7] (5 mg/kg) was “significantly smaller”. Moreover, in the data set on MRSA-2 [7] (5 mg/kg, injected 2 h and 24 h postinfection, compared to model and solvent group), the “volume of skin abscess” value is “reduced volume”. The “purulent foci (skin histopathology)” value in the data set on MRSA-2 [7] (10 mg/kg) is recorded as “almost no purulent foci”. Further, the skin abscess appearance result with MRSA-2 [7] (10 mg/kg, injected 2 h and 24 h postinfection) is “devoid of any discernible abscesses”. Also, in the data set with MRSA-2 [7] (2D 5 and 10 mg/kg, vancomycin 5 mg/kg, compared with model and solvent group), the “bacterial load of the skin at the infected site” value is recorded as “decreased bacterial load; also recorded: significantly reduced”. For the same compound, the “histopathology of the major organs” value in the data set with MRSA-2 [7] (infected mice after treatment, H&E) is given as “no discernible lesions”.
